The values that follow come from PMC2120771 (The Journal of Cell Biology, 1996).

One test concerns Shigella flexneri M90T. As to the kind of experiment: Shigella intracellular motility in PtK2 cells before and after microinjection. The test is classed as cell-based.
The test system of a further test is profilin-VASP. Particulars: in vitro; ref Reinhard et al., 1995; cited from earlier work.
Another test has as its system Listeria monocytogenes. Particulars: microinjection; ref Southwick and Purich, 1995; cited from earlier work.
The mark [1] stands for this setting: intracellular concentration 10 μM.
The mark [2] stands for this setting: intracellular 80 nM, 2-4 min after microinjection.

Bounds are passed on as bounds.

On to (GPPPPP)3 [VASP peptide], for which the “Intracellular concentration that inhibits Shigella movement” value with Shigella flexneri M90T (PtK2 cells, microinjection, estimated intracellular concentration) was 10 µM. Moreover, in the test with Shigella flexneri M90T (setting [1]), the Postinjection/preinjection velocity was determined as 0.15. In addition, in the test on Shigella flexneri M90T (intracellular concentration 10 μM, mean, SD), the Postinjection velocity is listed as 0.02 - 0.05 μm/s. The “Effect on Shigella motility” value with Shigella flexneri M90T (intracellular concentrations 2 and 6 μM (Fig. 7 B), large standard deviations) is “variable inhibition”. In the test with profilin-VASP, the “Dissociation of profilin from VASP” value is listed as “can dissociate profilin from VASP in vitro”.
In the case of CFEFPPPPTDE [Act A peptide], the “Time after injection at which bacterial motility ceases” value in the test on Shigella flexneri M90T (800 nM needle concentration, estimated intracellular concentration 80 nM) was no more than 30 s. Moreover, the “Time after injection at which phase-dense actin tails disappear” value with Shigella flexneri M90T (estimated intracellular concentration 80 nM) was no more than 30 s. The “Fraction of bacteria that resume migration” value with Shigella flexneri M90T (setting [2]) is “One quarter”. Besides, in the test with Shigella flexneri M90T (setting [2]), the “Rate of resumed movement relative to velocities measured before injection” value is 25-30%. The “Effect on Shigella intracellular movement” value is “fails to inhibit” with Shigella flexneri M90T (intracellular concentration 8 nM (Fig. 5 B)) and “consistently block intracellular movement” with Shigella flexneri M90T (intracellular concentrations 400-800 nM (Fig. 5 B)). Also, the Postinjection/preinjection velocity with Shigella flexneri M90T (intracellular concentration 80 nM) was 0.07.
The substance “VKSKIGSTDNIKYZPKGG [MAP-2 peptide, reference compound]” came in with a Postinjection/preinjection velocity in the test with Shigella flexneri M90T (setting [1]) of 1.00.
For YDPAPPPPPP [mosquito oostatic factor], the “Effect on Listeria locomotion” value with Listeria monocytogenes is given as “inhibits Listeria locomotion”.
Take poly-L-proline [reference compound]: the “Effect on Shigella velocity” value with Shigella flexneri M90T (increasing intracellular concentrations (Fig. 8 A), each point mean of 20-40 velocity measurements) is recorded as “dose-dependent slowing of bacterial velocity”.
